Experiments:
Assay type in all cases: cell-based, Escherichia coli
[1] = test system: EKO-35 araC::acrBD408A; assay: MIC susceptibility profiling, efflux platform; conditions: for Fold change of MICs: EKO-35 araC::acrBD408A compared to EKO-35
How it was run: (§1)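 Overnight LB cultures were grown at 37 °C with aeration, then washed into PBS, pH 7.4, to OD600 ~1.0. A 1/2000 dilution in MHB II was exposed to compound dilution series for 18 h at 37 °C. The MIC was taken from corrected OD600.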

[2] = test system: EKO-35 araC::acrEF; assay: MIC susceptibility profiling, efflux platform; conditions: for Fold change of MICs: EKO-35 araC::acrEF compared to EKO-35
How it was run: as §1

[3] = test system: EKO-35 araC::mexCD (MexCD from P. aeruginosa); assay: MIC susceptibility profiling, efflux platform; conditions: for Fold change of MICs: EKO-35 araC::mexCD compared to EKO-35
How it was run: as §1

[4] = test system: EKO-35 araC::macAB; assay: MIC susceptibility profiling, efflux platform; conditions: for Fold change of MICs: EKO-35 araC::macAB compared to EKO-35
How it was run: as §1

[5] = test system: EKO-35 araC::mdtBC; assay: MIC susceptibility profiling, efflux platform; conditions: for Fold change of MICs: EKO-35 araC::mdtBC compared to EKO-35
How it was run: as §1

[6] = test system: EKO-35 araC::emrAB; assay: MIC susceptibility profiling, efflux platform; conditions: for Fold change of MICs: EKO-35 araC::emrAB compared to EKO-35
How it was run: as §1

[7] = test system: EKO-35 araC::acrD; assay: MIC susceptibility profiling, efflux platform; conditions: for Fold change of MICs: EKO-35 araC::acrD compared to EKO-35
How it was run: as §1

[8] = test system: EKO-35 araC::emrKY; assay: MIC susceptibility profiling, efflux platform; conditions: for Fold change of MICs: EKO-35 araC::emrKY compared to EKO-35
How it was run: as §1

[9] = test system: EKO-35 araC::acrEF Pore; assay: MIC susceptibility profiling, porinated efflux platform; conditions: for Fold changes of MICs: EKO-35 araC::acrEF Pore compared to EKO-35-Pore
How it was run: (§2)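 Strains carry the fhuA ΔC/Δ4L pore integrated between glmS and pstS under a constitutive promoter, with pore activity checked by vancomycin susceptibility. Overnight LB cultures were adjusted in PBS pH 7.4 to OD600 ~1.0 and diluted 1/2000 into MHB II. 2-fold compound titrations were read by OD600 after 18 h at 37 °C.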

[10] = test system: EKO-35 araC::acrBD408A Pore; assay: as above; conditions: for Fold changes of MICs: EKO-35 araC::acrBD408A Pore compared to EKO-35-Pore
How it was run: as §2

[11] = test system: EKO-35 araC::acrD Pore; assay: as above; conditions: for Fold changes of MICs: EKO-35 araC::acrD Pore compared to EKO-35-Pore
How it was run: as §2

[12] = test system: EKO-35 araC::mdtEF Pore; assay: as above; conditions: for Fold changes of MICs: EKO-35 araC::mdtEF Pore compared to EKO-35-Pore
How it was run: as §2

[13] = test system: EKO-35 araC::mexCD Pore; assay: as above; conditions: for Fold changes of MICs: EKO-35 araC::mexCD Pore compared to EKO-35-Pore
How it was run: as §2

[14] = test system: EKO-35 araC::macAB Pore; assay: as above; conditions: for Fold changes of MICs: EKO-35 araC::macAB Pore compared to EKO-35-Pore
How it was run: as §2

[15] = test system: EKO-35 araC::acrB Pore; assay: as above; conditions: for Fold changes of MICs: EKO-35 araC::acr-B Pore compared to EKO-35-Pore
How it was run: as §2

[16] = test system: EKO-35 araC::mdtBC Pore; assay: as above; conditions: for Fold changes of MICs: EKO-35 araC::mdtBC Pore compared to EKO-35-Pore
How it was run: as §2

[17] = test system: EKO-35 araC::emrAB Pore; assay: as above; conditions: for Fold changes of MICs: EKO-35 araC::emrAB Pore compared to EKO-35-Pore
How it was run: as §2

[18] = test system: EKO-35 araC::emrKY Pore; assay: as above; conditions: for Fold changes of MICs: EKO-35 araC::emrKY Pore compared to EKO-35-Pore
How it was run: as §2

[19] = Table 13B, non-porinated, technical duplicate
[20] = Table 13A, non-porinated, technical duplicate
[21] = Table 14A, porinated, technical duplicate
[22] = EKO-35 araC::acrBD408A Pore, technical duplicate
[23] = EKO-35 araC::mexCD Pore, technical duplicate
[24] = EKO-35 araC::macAB Pore, technical duplicate
[25] = EKO-35 araC::mdtBC Pore, technical duplicate
[26] = EKO-35 araC::emrAB Pore, technical duplicate
[27] = EKO-35 araC::emrKY Pore, technical duplicate

| SMILES | Fold change of MICs [1] [fold] | Minimum Inhibitory Concentration, EKO-35 araC::acrBD408A [1, 19] [µg/mL] | Fold change of MICs [2] [fold] | Minimum Inhibitory Concentration, EKO-35 araC::acrEF [2, 20] [µg/mL] | Fold change of MICs [3] [fold] | Minimum Inhibitory Concentration, EKO-35 araC::mexCD [3, 19] [µg/mL] | Fold change of MICs [4] [fold] | Minimum Inhibitory Concentration, EKO-35 araC::macAB [4, 19] [µg/mL] | Fold change of MICs [5] [fold] | Fold change of MICs [6] [fold] | Fold change of MICs [7] [fold] | Fold change of MICs [8] [fold] | Fold changes of MICs [9] [fold] | Fold changes of MICs [10] [fold] | Fold changes of MICs [11] [fold] | Fold changes of MICs [13] [fold] | Fold changes of MICs [14] [fold] | Fold changes of MICs [15] [fold] | Fold changes of MICs [17] [fold] | Fold changes of MICs [18] [fold] | other results |
| --- | --- | --- | --- | --- | --- | --- | --- | --- | --- | --- | --- | --- | --- | --- | --- | --- | --- | --- | --- | --- | --- |
| O=C(Nc1cccc(Oc2c(F)c(F)c(F)c(F)c2F)c1)c1ccccc1 [compound 1] | 1 | 320 | 1 | 320 | 1 | 320 | 1 | 320 | 1 | 1 | 1 | 1 | 1 | 1 | 1 | 1 | 1 | 1 | 1 | 1 | Minimum Inhibitory Concentration, EKO-35 araC::mdtBC [5, 19]: 320 µg/mL; Minimum Inhibitory Concentration, EKO-35 araC::emrAB [6, 19]: 320 µg/mL; Minimum Inhibitory Concentration, EKO-35 araC::acrD [7, 20]: 320 µg/mL; Minimum Inhibitory Concentration, EKO-35 araC::emrKY [8, 19]: 320 µg/mL; Minimum inhibitory concentration, EKO-35 araC::acrEF Pore [9, 21]: 320 µg/mL; Minimum inhibitory concentration [10, 22]: 320 µg/mL; Minimum inhibitory concentration, EKO-35 araC::acrD Pore [11, 21]: 320 µg/mL; Fold changes of MICs [12]: 1 fold; Minimum inhibitory concentration, EKO-35 araC::mdtEF Pore [12, 21]: 320 µg/mL; Minimum inhibitory concentration [13, 23]: 320 µg/mL; Minimum inhibitory concentration [14, 24]: 320 µg/mL; Minimum inhibitory concentration, EKO-35 araC::acrB Pore [15, 21]: 320 µg/mL; Fold changes of MICs [16]: 1 fold; Minimum inhibitory concentration [16, 25]: 320 µg/mL; Minimum inhibitory concentration [17, 26]: 320 µg/mL; Minimum inhibitory concentration [18, 27]: 320 µg/mL |
| O=c1oc(-c2ccccc2Cl)nn1-c1ccc(C(F)(F)F)cn1 [compound 5] | 1 | 20 | 16 | 320 | 16 | 320 | 1 | 20 | 1 | 16 | 2 | 1 | 16 | 1 | 1 | 16 | 1 | 16 | 16 | 1 | Minimum Inhibitory Concentration, EKO-35 araC::mdtBC [5, 19]: 10 µg/mL; Minimum Inhibitory Concentration, EKO-35 araC::emrAB [6, 19]: 320 µg/mL; Minimum Inhibitory Concentration, EKO-35 araC::acrD [7, 20]: 40 µg/mL; Minimum Inhibitory Concentration, EKO-35 araC::emrKY [8, 19]: 20 µg/mL; Minimum inhibitory concentration, EKO-35 araC::acrEF Pore [9, 21]: 320 µg/mL; Minimum inhibitory concentration [10, 22]: 20 µg/mL; Minimum inhibitory concentration, EKO-35 araC::acrD Pore [11, 21]: 10 µg/mL; Minimum inhibitory concentration, EKO-35 araC::mdtEF Pore [12, 21]: 320 µg/mL; Minimum inhibitory concentration [13, 23]: 320 µg/mL; Minimum inhibitory concentration [14, 24]: 10 µg/mL; Minimum inhibitory concentration, EKO-35 araC::acrB Pore [15, 21]: 320 µg/mL; Minimum inhibitory concentration [16, 25]: 10 µg/mL; Minimum inhibitory concentration [17, 26]: 320 µg/mL; Minimum inhibitory concentration [18, 27]: 10 µg/mL |
| CN(C)[C@@H]1C(O)=C(C(N)=O)C(=O)[C@@]2(O)C(O)=C3C(=O)c4c(O)cccc4[C@@](C)(O)[C@H]3C[C@@H]12 [tetracycline] | 1 | – | 1 | – | 1 | – | 1 | – | 1 | 1 | 1 | 1 | 1 | 1 | 1 | 1 | 1 | 2 | 1 | 1 | MIC ([1]; Escherichia coli, Table 13B, non-porinated, technical duplicate, read-out: Minimum Inhibitory Concentration, EKO-35 araC::acrBD408A): 0.195 µg/mL; MIC ([2]; Escherichia coli, Table 13A, non-porinated, technical duplicate, read-out: Minimum Inhibitory Concentration, EKO-35 araC::acrEF): 0.195 µg/mL; MIC ([3]; Table 13B, non-porinated, technical duplicate, read-out: Minimum Inhibitory Concentration, EKO-35 araC::mexCD): 0.195 µg/mL; MIC ([4]; Escherichia coli, Table 13B, non-porinated, technical duplicate, read-out: Minimum Inhibitory Concentration, EKO-35 araC::macAB): 0.195 µg/mL; MIC ([5]; Escherichia coli, Table 13B, non-porinated, technical duplicate, read-out: Minimum Inhibitory Concentration, EKO-35 araC::mdtBC): 0.195 µg/mL; MIC ([6]; Escherichia coli, Table 13B, non-porinated, technical duplicate, read-out: Minimum Inhibitory Concentration, EKO-35 araC::emrAB): 0.195 µg/mL; MIC ([7]; Escherichia coli, Table 13A, non-porinated, technical duplicate, read-out: Minimum Inhibitory Concentration, EKO-35 araC::acrD): 0.195 µg/mL; MIC ([8]; Escherichia coli, Table 13B, non-porinated, technical duplicate, read-out: Minimum Inhibitory Concentration, EKO-35 araC::emrKY): 0.195 µg/mL; MIC ([9]; Escherichia coli, Table 14A, porinated, technical duplicate, read-out: Minimum inhibitory concentration, EKO-35 araC::acrEF Pore): 0.195 µg/mL; MIC ([10]; Escherichia coli, EKO-35 araC::acrBD408A Pore, technical duplicate, read-out: Minimum inhibitory concentration): 0.195 µg/mL; MIC ([11]; Escherichia coli, Table 14A, porinated, technical duplicate, read-out: Minimum inhibitory concentration, EKO-35 araC::acrD Pore): 0.195 µg/mL; Fold changes of MICs [12]: 1 fold; MIC ([12]; Escherichia coli, Table 14A, porinated, technical duplicate, read-out: Minimum inhibitory concentration, EKO-35 araC::mdtEF Pore): 0.195 µg/mL; MIC ([13]; Escherichia coli, EKO-35 araC::mexCD Pore, technical duplicate, read-out: Minimum inhibitory concentration): 0.195 µg/mL; MIC ([14]; Escherichia coli, EKO-35 araC::macAB Pore, technical duplicate, read-out: Minimum inhibitory concentration): 0.195 µg/mL; MIC ([15]; Escherichia coli, Table 14A, porinated, technical duplicate, read-out: Minimum inhibitory concentration, EKO-35 araC::acrB Pore): 0.391 µg/mL; Fold changes of MICs [16]: 1 fold; MIC ([16]; Escherichia coli, EKO-35 araC::mdtBC Pore, technical duplicate, read-out: Minimum inhibitory concentration): 0.195 µg/mL; MIC ([17]; Escherichia coli, EKO-35 araC::emrAB Pore, technical duplicate, read-out: Minimum inhibitory concentration): 0.195 µg/mL; MIC ([18]; Escherichia coli, EKO-35 araC::emrKY Pore, technical duplicate, read-out: Minimum inhibitory concentration): 0.195 µg/mL |
